One test concerns the target T1, SMS1 (Homo sapiens, UniProt Q86VZ5).
T1 construct: expressed in transfected cells; host or cells: ZS/SMS1 cells (sonicated lysate)
T1 sequence (Q86VZ5 1-413): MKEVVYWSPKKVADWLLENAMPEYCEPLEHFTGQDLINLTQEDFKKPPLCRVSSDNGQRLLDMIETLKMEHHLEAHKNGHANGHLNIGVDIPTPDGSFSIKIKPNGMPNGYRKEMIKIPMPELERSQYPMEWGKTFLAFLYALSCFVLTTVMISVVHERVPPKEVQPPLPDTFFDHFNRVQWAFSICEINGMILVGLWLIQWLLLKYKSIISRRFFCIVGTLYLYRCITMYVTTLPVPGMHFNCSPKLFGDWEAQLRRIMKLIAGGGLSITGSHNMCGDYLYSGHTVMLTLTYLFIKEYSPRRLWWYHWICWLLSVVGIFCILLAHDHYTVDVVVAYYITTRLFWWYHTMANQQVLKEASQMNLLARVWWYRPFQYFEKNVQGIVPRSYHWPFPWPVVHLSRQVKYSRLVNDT
The test can be described thus: SMS assay, cell lysate with fluorescent substrate C6-NBD-Cer (SMS1). The test is classed as biochemical. As to the method: (§1) The ability of DCA and its derivatives to inhibit the SMS isozymes SMS1 and SMS2 was evaluated using a cell lysate assay and the fluorescent substrate C6-NBD (4-nitrobenzo-2-oxa-1,3-diazole)-Cer. […] Thus, the carboxylic acid group of DCAs are essential moieties for their inhibition of SMSs. However, the SMS has not been succeeded in its crystallization. Therefore, a direct comparison with the previously isolated SMS inhibitor ginkgolic acid has been examined. […] Further, a previous report concerning the mode of action for Aβ aggregation inhibition for small molecules gave the insight that the crucial role of a hydrophobic-side hydrocarbon chain and an aromatic ring as well as its two hydrophilic functions causes significant interaction with the amyloid.
(§2) ZS/SMS1 and ZS/SMS2 cells (protein concentration 0.1 µg/µL) were diluted in 20 mM Tris-buffer (pH 7.5) and sonicated. A 1 µL aliquot of each compound at the desired concentration was added to 100 µL aliquots of the cell lysates and the solutions were incubated at 37 °C for 30 min. A 1 µL aliquot of C6-NBD-ceramide was added to each solution and the solutions were incubated for 3 h at 37 °C. The reactions were stopped by addition of 400 µL of MeOH/CHCl3 [1/2 (v/v)], and the mixtures were shaken and centrifuged at 1500 rpm for 5 min. The formation of C6-NBD-sphingomyelin was quantified by HPLC determination of its peak area. Inhibitory activity was quantified by a reverse-phase HPLC assay using a JACSO HPLC system, equipped with a PU-2089 Plus and FP-2020 Plus set at λex = 470 nm and λem = 530 nm. A 50 × 4.6 YMC-Pack Diol-120-NP column (5-µm particle size) was used with the mobile phase (IPA/hexane/water) at a flow rate of 1.0 mL/min
(§3) Figure 1 Inhibition of SMS1 and SMS2 activities by (a) DCA (1), (b) derivative (4), (c) derivative (6) and (d) derivative (7). IC50 values were measured using a cell lysate assay. SMS-expressing cell lysates and compounds were incubated for 3 h at 37 °C, and the extracted fluorescent lipids were directly analyzed by HPLC. Each point represents the mean ± SD of triplicate assays.

The target in another test is T2, SMS2 (Homo sapiens, UniProt Q8NHU3).
T2 construct: expressed in transfected cells; host or cells: ZS/SMS2 cells (sonicated lysate)
T2 sequence (Q8NHU3 1-365): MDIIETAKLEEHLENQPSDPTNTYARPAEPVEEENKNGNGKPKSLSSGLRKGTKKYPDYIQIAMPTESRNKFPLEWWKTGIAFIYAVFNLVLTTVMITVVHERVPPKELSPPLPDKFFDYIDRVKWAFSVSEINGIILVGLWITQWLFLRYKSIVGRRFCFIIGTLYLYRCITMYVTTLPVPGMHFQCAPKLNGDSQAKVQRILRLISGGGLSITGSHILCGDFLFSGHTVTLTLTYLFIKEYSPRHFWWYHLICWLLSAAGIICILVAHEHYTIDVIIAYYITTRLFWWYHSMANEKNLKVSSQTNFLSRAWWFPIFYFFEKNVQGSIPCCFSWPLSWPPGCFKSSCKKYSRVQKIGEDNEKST
The test can be described thus: SMS assay, cell lysate with fluorescent substrate C6-NBD-Cer (SMS2). In kind it is biochemical. As to the method: as §1, §2, §3

Test [1] addresses T3, Aβ42 aggregation (Homo sapiens, UniProt P05067).
T3 construct: 30 nM QD-labeled Aβ40 (QDAβ), and 30 μM Aβ42 in PBS
The test can be described thus: Aβ aggregation inhibition, microtiter-scale high-throughput screening (MSHTS) assay. The test is classed as biochemical. As to the method: Alzheimer’s disease (AD) is a multifactorial disease, which is believed to be caused by complex interactions among several contributing patho-mechanisms. The ability of DCA and its derivatives, along with other natural compounds, ginkgolic acids (8, 9) (Figure 2) and malabaicone A–C (10, 11 and 12), to inhibit Aβ42 aggregation was evaluated by microtiter-scale high-throughput screening (MSHTS) assays. EC50 values were measured from inhibition curves, in which the percent SDs of fluorescence intensities were plotted against the concentration of each compound (Figure 3). Here, 30 nM quantum dot amyloid beta (QDAβ) and 30 µM of Aβ were incubated with different concentrations to evaluate the EC50 of all derivatives. […] The inhibitory activities of the other cyclized DCAs and malabaricones were lower (Figure S2).
The aggregation inhibitory activities of plant extracts, fractions, DCA, DCA derivatives, and naturally occurring SMS inhibitors (compounds 8, 9, and 10) were measured using a modified MSHTS system. Various concentrations of each were incubated with 30 nM QD-labeled Aβ40 (QDAβ), and 30 μM Aβ42 in PBS containing 5% EtOH and 3% DMSO at 37 °C for 24 h in 1536-well plates (782096, Greiner) (Kremsmünster, Austria). The center of each well as viewed with an inverted fluorescence microscope (TE2000, Nikon)) (Tokyo, Japan) equipped with a color CCD camera (DP72, Olympus) (Tokyo, Japan), and the central region of each well were measured with ImageJ software Ver 1.53b (NIH) to determine the standard deviations (SD) of fluorescence intensities of 40,000 pixels (200 × 200 pixels: 320 × 320 μm). The SD values, which were approximately proportional to the amount of aggregates, were plotted against the concentrations of the putative inhibitors to generate inhibition curves, and the EC50 values were determined.
Figure 3 (A) Inhibition of Aβ42 aggregation by DCA, its derivatives, and natural sphingomyelin synthase inhibitors, as shown by incubation of 30 nM QDAβ and 30 µM Aβ with various concentrations of these compounds. (B) Estimation of EC50 values from inhibition curves, in which the percent SDs of fluorescence intensities were plotted against the concentrations of these compounds.

The target in test [2] is T3, Aβ42 aggregation. Details: method as in PMID 23991168. The note with it: comparison value; read-out: EC50 of Aβ aggregation inhibition (MSHTS); cited from earlier work.
Another test relates to sphingomyelin synthase. The test can be described thus: SMS activity, isozyme not specified (abstract value; fractions of Rhododendron dauricum extract). Conditions: isozyme not stated, read-out: IC50, inhibition of sphingomyelin synthase activity. In kind it is biochemical.
The mark [3] stands for this setting: ZS/SMS1 cell lysate, C6-NBD-ceramide, 3 h at 37 °C, HPLC, read-out: SMS Assay (SMS1) IC50.
The mark [4] stands for this setting: ZS/SMS2 cell lysate, C6-NBD-ceramide, 3 h at 37 °C, HPLC, read-out: SMS Assay (SMS2) IC50.
[5] abbreviates: 30 nM QDAβ and 30 µM Aβ42, 37 °C, 24 h, read-out: MHSTS Assay EC50 (inhibition of Aβ42 aggregation).
The mark [6] stands for this setting: ZS/SMS1 cell lysate, C6-NBD-ceramide, 3 h at 37 °C, HPLC.
The mark [7] stands for this setting: ZS/SMS2 cell lysate, C6-NBD-ceramide, 3 h at 37 °C, HPLC.

Like-named read-outs stand apart in the source and are kept apart here.

The values that follow come from publication PMC7571127, “Daurichromenic Acid from the Chinese Traditional Medicinal Plant Rhododendron dauricum Inhibits Sphingomyelin Synthase and Aβ Aggregation” (Molecules, 2020).

For orientation: IC50 means the point on the concentration scale where inhibition reaches its midpoint. Broadly, the EC50 is the concentration that produces a half-maximal response.

T3 sequence (P05067 672-713 limits assumed): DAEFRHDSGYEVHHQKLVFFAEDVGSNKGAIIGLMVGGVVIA
Description for sphingomyelin synthase: The dried powder, weighing 81 g, was extracted three times with 400 mL methanol for 24 h each at room temperature. The methanol extracts were combined and concentrated under reduced pressure, yielding a black residue weighing 24.2 g. The residue was dissolved in 20% MeOH in water (500 mL) and partitioned three times with 200 mL hexane, three times with 200 mL Et2O, and three times with 200 mL EtOAc. The solvents were evaporated, and SMS activities were assessed in the hexane, Et2O, EtOAc, and water residues.
ZS/SMS1 and ZS/SMS2 cells (protein concentration 0.1 µg/µL) were diluted in 20 mM Tris-buffer (pH 7.5) and sonicated. A 1 µL aliquot of each compound at the desired concentration was added to 100 µL aliquots of the cell lysates and the solutions were incubated at 37 °C for 30 min. A 1 µL aliquot of C6-NBD-ceramide was added to each solution and the solutions were incubated for 3 h at 37 °C. The reactions were stopped by addition of 400 µL of MeOH/CHCl3 [1/2 (v/v)], and the mixtures were shaken and centrifuged at 1500 rpm for 5 min. The formation of C6-NBD-sphingomyelin was quantified by HPLC determination of its peak area. Inhibitory activity was quantified by a reverse-phase HPLC assay using a JACSO HPLC system, equipped with a PU-2089 Plus and FP-2020 Plus set at λex = 470 nm and λem = 530 nm. […]

Consider `CCCCCCCCCCCCCCCc1cccc(O)c1C(=O)O` [Compound 9, ginkgolic acid, reference compound], for which the IC50 at SMS1 (setting [3]) and on SMS2 (setting [4]) was 2 µM each time. For the same molecule, on Aβ42 aggregation [1] (setting [5]), the EC50 turned out to be 296 µM.

Consider `Cc1cc2c(c(O)c1C(=O)O)C=C1[C@]3(C)CCCC(C)(C)[C@H]3CC[C@]1(C)O2` [Compound 6, (−)-(5R,8S,10R)-9,15-Didehydro hongoquercin A], for which the IC50 on SMS1 (setting [3]) was found to be 9 µM; at SMS2 (setting [4]) it was 7 µM.

As to `COc1c2c(cc(C)c1C(=O)O)O[C@@](C)(CC/C=C(\C)CCC=C(C)C)C=C2` [Compound 4, (S,E)-2-(4,8-Dimethylnona-3,7-dien-1-yl)-5-methoxy-2,7-dimethyl-2H-chromene-6-carboxylic acid], the 50% inhibitory concentration (IC50) was determined as 17 µM at SMS1 (setting [3]) and 10 µM on SMS2 (setting [4]). For the same molecule, the EC50 on Aβ42 aggregation [1] (setting [5]) was 74 µM.

In the case of `CCCCCC/C=C\CCCCCCCc1cccc(O)c1C(=O)O` [Compound 8, ginkgolic acid, reference compound], the IC50 on SMS1 (setting [3]) and at SMS2 (setting [4]) was 1.5 µM throughout. In addition, the 50% effective concentration (EC50) on Aβ42 aggregation [1] (setting [5]) turned out to be 149 µM.

As to `O=C(/C=C/c1ccc(O)c(O)c1)O[C@H](Cc1ccc(O)c(O)c1)C(=O)O` [rosmarinic acid], on Aβ42 aggregation [2], the concentration giving a half-maximal response (EC50) is 60 µM.

For `COC(=O)c1c(C)cc2c(c1O)C=C[C@](C)(CC/C=C(\C)CCC=C(C)C)O2` [Compound 2, Methyl Ester of DCA], the “SMS Assay (SMS1) IC50” value on SMS1 (setting [6]) is “inactive”. The “SMS Assay (SMS2) IC50” value on SMS2 (setting [7]) was “inactive”.

For the molecule `CC(C)=CCC/C(C)=C/CC[C@@]1(C)C=Cc2c(cc(C)c(C(=O)O)c2O)O1` [Compound 1, Daurichromenic acid], the IC50 was 7 µM at SMS1, 4 µM against SMS2 and 4 µM with sphingomyelin synthase. In addition, the EC50 at Aβ42 aggregation [1] turned out to be 57 µM.

Regarding `COC(=O)c1c(C)cc2c(c1O)C=C1[C@]3(C)CCCC(C)(C)[C@H]3CC[C@]1(C)O2` [Compound 5, (−)-(5R,8S,10R)-9,15-Didehydro hongoquercin A methyl ester], at SMS1 (setting [6]), the “SMS Assay (SMS1) IC50” value is “inactive”. Besides, the “SMS Assay (SMS2) IC50” value on SMS2 (setting [7]) was “inactive”.

`Cc1cc2c(c(O)c1C(=O)O)CC1[C@]3(C)CCCC(C)(C)[C@H]3CC[C@]1(C)O2` (single isomer, unassigned; (-)) [Compound 7, (−) Hongoquercin A]: the IC50 on SMS1 (setting [3]) was 4 µM; on SMS2 (setting [4]), 5 µM. In addition, the concentration for a half-maximal effect (EC50) at Aβ42 aggregation [1] (setting [5]) is 238 µM.

On to `COC(=O)c1c(C)cc2c(c1OC)C=C[C@](C)(CC/C=C(\C)CCC=C(C)C)O2` [Compound 3, Methyl(S,E)-2-(4,8-dimethylnona-3,7-dien-1-yl)-5-methoxy-2,7-dimethyl-2H-chromene-6 carboxylate], for which the “SMS Assay (SMS1) IC50” value at SMS1 (setting [6]) is “inactive”. At SMS2 (setting [7]), the “SMS Assay (SMS2) IC50” value is “inactive”.
